Source: the supplement of paper PMC9663587

Experiments:
[1] = compound: COc1ccc2c(c1)[C@]1(C[C@H]1c1ccc3c(/C=C/c4ccc(CN5C[C@@H](C)O[C@@H](C)C5)cc4)n[nH]c3c1)C(=O)N2
[2] = compound: CO[C@@H](C)Cn1c(=O)n(C)c2cnc3ccc(-c4cncc(C(C)(C)O)c4)cc3c21
Alpelisib/BYL719 = compound: Cc1nc(NC(=O)N2CCC[C@H]2C(N)=O)sc1-c1ccnc(C(C)(C)C(F)(F)F)c1 [Alpelisib/BYL719]
[3] = compound: CC(=O)Nc1cccc(-n2c(=O)n(C3CC3)c(=O)c3c(Nc4ccc(I)cc4F)n(C)c(=O)c(C)c32)c1
[4] = compound: CCCCOc1c(C(=O)c2c(F)cc(C)cc2F)c[nH]c2nncc1-2
Rucaparib = compound: CNCc1ccc(-c2[nH]c3cc(F)cc4c3c2CCNC4=O)cc1 [Rucaparib]
Cediranib/AZD2171 = compound: COc1cc2c(Oc3ccc4[nH]c(C)cc4c3F)ncnc2cc1OCCCN1CCCC1 [Cediranib/AZD2171]
Saracatinib/AZD0530 = compound: CN1CCN(CCOc2cc(OC3CCOCC3)c3c(Nc4c(Cl)ccc5c4OCO5)ncnc3c2)CC1 [Saracatinib/AZD0530]
AZD1775 = compound: C=CCn1c(=O)c2cnc(Nc3ccc(N4CCN(C)CC4)cc3)nc2n1-c1cccc(C(C)(C)O)n1 [AZD1775]
THZ1 [5] = compound: T1, CN(C)C/C=C/C(=O)Nc1ccc(C(=O)Nc2cccc(Nc3ncc(Cl)c(-c4c[nH]c5ccccc45)n3)c2)cc1 [THZ1]
THZ531 [6] = compound: T2, CN(C)C/C=C/C(=O)Nc1ccc(C(=O)N2CCC[C@@H](Nc3ncc(Cl)c(-c4c[nH]c5ccccc45)n3)C2)cc1 [THZ531]
BVD523 = compound: CC(C)Nc1cc(-c2c[nH]c(C(=O)N[C@H](CO)c3cccc(Cl)c3)c2)c(Cl)cn1 [BVD523]
[7] = compound: CC(=O)c1c(C)c2cnc(Nc3ccc(N4CCNCC4)cn3)nc2n(C2CCCC2)c1=O; test: increase in dead-cell fraction, 72 h; higher = more death;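 note: breast cancer cell lines in 384-well plates, stained with Hoechst plus LIVE/DEAD far red dye and imaged, cells above an LDR intensity threshold counted dead, Hoechst-negative corpses included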
Neratinib/HKI272 = compound: CCOc1cc2ncc(C#N)c(Nc3ccc(OCc4ccccn4)c(Cl)c3)c2cc1NC(=O)/C=C/CN(C)C [Neratinib/HKI272]; test: as above
YKL-5-124 = compound: C=CC(=O)Nc1ccc(C(=O)Nc2[nH]nc3c2CN(C(=O)N[C@H](CN(C)C)c2ccccc2)C3(C)C)cc1 [YKL-5-124]; test: as above
BSJ-03-123 = compound: CC(=O)c1c(C)c2cnc(Nc3ccc(N4CCN(CCOCCOCCOCCNC(=O)COc5cccc6c5C(=O)N(C5CCC(=O)NC5=O)C6=O)CC4)cn3)nc2n(C2CCCC2)c1=O [BSJ-03-123]; test: as above
LEE011/Ribociclib = compound: CN(C)C(=O)c1cc2cnc(Nc3ccc(N4CCNCC4)cn3)nc2n1C1CCCC1 [LEE011/Ribociclib]; test: as above
[8] = compound: CCc1cnn2c(NCc3ccc[n+]([O-])c3)cc(N3CCCC[C@H]3CCO)nc12; test: as above
THZ1 [9] = compound: T1, THZ1; test: as above
THZ531 [10] = compound: T2, THZ531; test: as above
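Throughout, for GR50, 72 h: breast cancer and non-malignant breast epithelial cell lines, Deep Dye Drop or Dye Drop imaging, nine half-log doses, GR normalized to time-zero plates and DMSO-only controls.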

With HCC1806 the “GR50, 72 h” value [1] was 0.00322 µM, the “GR50, 72 h” value [2] was 0.347 µM and the “GR50, 72 h” value (Alpelisib/BYL719) was > 10 µM. The “GR50, 72 h” value [3] was > 1 µM, the “GR50, 72 h” value [4] was 0.278 µM and the “GR50, 72 h” value (Rucaparib) was > 10 µM. For the same cell line, the “GR50, 72 h” value (Cediranib/AZD2171) was 4.93 µM, the “GR50, 72 h” value (Saracatinib/AZD0530) was 1.73 µM and the “GR50, 72 h” value (AZD1775) was 0.0128 µM. For the same cell line, the “GR50, 72 h” value (THZ1 [5]) was 0.0688 µM, the “GR50, 72 h” value (THZ531 [6]) was 0.407 µM and the “GR50, 72 h” value (BVD523) was > 10 µM. The “increase in dead-cell fraction” value ([7]; 0.0003162 µM) was 0.0005, the “increase in dead-cell fraction” value ([7]; 0.001 µM) was 0.0026 and the “increase in dead-cell fraction” value ([7]; 0.003162 µM) was 0.0009. The “increase in dead-cell fraction” value ([7]; 0.01 µM) was -0.0004, the “increase in dead-cell fraction” value ([7]; 0.03162 µM) was 0.0094 and the “increase in dead-cell fraction” value ([7]; 0.1 µM) was 0.0238. The “increase in dead-cell fraction” value ([7]; 0.3162 µM) was 0.0157, the “increase in dead-cell fraction” value ([7]; 1 µM) was 0.0237 and the “increase in dead-cell fraction” value ([7]; 3.162 µM) was 0.0046. For the same cell line, the “increase in dead-cell fraction” value (Neratinib/HKI272; 0.0003162 µM) was 0.0048, the “increase in dead-cell fraction” value (Neratinib/HKI272; 0.001 µM) was -0.0002 and the “increase in dead-cell fraction” value (Neratinib/HKI272; 0.003162 µM) was 0.0056. The “increase in dead-cell fraction” value (Neratinib/HKI272; 0.01 µM) was 0.015, the “increase in dead-cell fraction” value (Neratinib/HKI272; 0.03162 µM) was 0.0267 and the “increase in dead-cell fraction” value (Neratinib/HKI272; 0.1 µM) was 0.0441. For the same cell line, the “increase in dead-cell fraction” value (Neratinib/HKI272; 0.3162 µM) was 0.065, the “increase in dead-cell fraction” value (Neratinib/HKI272; 1 µM) was 0.0775 and the “increase in dead-cell fraction” value (Neratinib/HKI272; 3.162 µM) was 0.435. The “increase in dead-cell fraction” value (YKL-5-124; 0.001 µM) was 0.0531, the “increase in dead-cell fraction” value (YKL-5-124; 0.003162 µM) was 0.0858 and the “increase in dead-cell fraction” value (YKL-5-124; 0.01 µM) was 0.134. For the same cell line, the “increase in dead-cell fraction” value (YKL-5-124; 0.03162 µM) was 0.202, the “increase in dead-cell fraction” value (YKL-5-124; 0.1 µM) was 0.196 and the “increase in dead-cell fraction” value (YKL-5-124; 0.3162 µM) was 0.264. For the same cell line, the “increase in dead-cell fraction” value (YKL-5-124; 1 µM) was 0.331, the “increase in dead-cell fraction” value (YKL-5-124; 3.162 µM) was 0.322 and the “increase in dead-cell fraction” value (YKL-5-124; 10 µM) was 0.538. The “increase in dead-cell fraction” value (BSJ-03-123; 0.001 µM) was 0.0017, the “increase in dead-cell fraction” value (BSJ-03-123; 0.003162 µM) was 0.0008 and the “increase in dead-cell fraction” value (BSJ-03-123; 0.01 µM) was -0.0016. The “increase in dead-cell fraction” value (BSJ-03-123; 0.03162 µM) was -0.0015, the “increase in dead-cell fraction” value (BSJ-03-123; 0.1 µM) was 0.0039 and the “increase in dead-cell fraction” value (BSJ-03-123; 0.3162 µM) was 0.0061. The “increase in dead-cell fraction” value (BSJ-03-123; 1 µM) was 0.0075, the “increase in dead-cell fraction” value (BSJ-03-123; 3.162 µM) was 0.0235 and the “increase in dead-cell fraction” value (BSJ-03-123; 10 µM) was 0.152. For the same cell line, the “increase in dead-cell fraction” value (LEE011/Ribociclib; 0.001 µM) was 0.0002, the “increase in dead-cell fraction” value (LEE011/Ribociclib; 0.003162 µM) was -0.0001 and the “increase in dead-cell fraction” value (LEE011/Ribociclib; 0.01 µM) was 0.0014. The “increase in dead-cell fraction” value (LEE011/Ribociclib; 0.03162 µM) was -0.0047, the “increase in dead-cell fraction” value (LEE011/Ribociclib; 0.1 µM) was 0.0015 and the “increase in dead-cell fraction” value (LEE011/Ribociclib; 0.3162 µM) was 0.0032. For the same cell line, the “increase in dead-cell fraction” value (LEE011/Ribociclib; 1 µM) was 0.0064, the “increase in dead-cell fraction” value (LEE011/Ribociclib; 3.162 µM) was 0.0046 and the “increase in dead-cell fraction” value (LEE011/Ribociclib; 10 µM) was 0.0171. The “increase in dead-cell fraction” value ([8]; 0.0001 µM) was -0.0016, the “increase in dead-cell fraction” value ([8]; 0.0003162 µM) was -0.0077 and the “increase in dead-cell fraction” value ([8]; 0.001 µM) was -0.0005. For the same cell line, the “increase in dead-cell fraction” value ([8]; 0.003162 µM) was 0.0006, the “increase in dead-cell fraction” value ([8]; 0.01 µM) was 0.0355 and the “increase in dead-cell fraction” value ([8]; 0.03162 µM) was 0.585. The “increase in dead-cell fraction” value ([8]; 0.1 µM) was 0.742, the “increase in dead-cell fraction” value ([8]; 0.3162 µM) was 0.728 and the “increase in dead-cell fraction” value ([8]; 1 µM) was 0.713. For the same cell line, the “increase in dead-cell fraction” value (THZ1 [9]; 0.0001 µM) was -0.0025, the “increase in dead-cell fraction” value (THZ1 [9]; 0.0003162 µM) was -0.0038 and the “increase in dead-cell fraction” value (THZ1 [9]; 0.001 µM) was -0.0025. For the same cell line, the “increase in dead-cell fraction” value (THZ1 [9]; 0.003162 µM) was -0.0009, the “increase in dead-cell fraction” value (THZ1 [9]; 0.01 µM) was -0.0024 and the “increase in dead-cell fraction” value (THZ1 [9]; 0.03162 µM) was 0.0112. The “increase in dead-cell fraction” value (THZ1 [9]; 0.1 µM) was 0.0478, the “increase in dead-cell fraction” value (THZ1 [9]; 0.3162 µM) was 0.271 and the “increase in dead-cell fraction” value (THZ1 [9]; 1 µM) was 0.766. For the same cell line, the “increase in dead-cell fraction” value (THZ531 [10]; 0.0001 µM) was 0.0006, the “increase in dead-cell fraction” value (THZ531 [10]; 0.0003162 µM) was 0.001 and the “increase in dead-cell fraction” value (THZ531 [10]; 0.001 µM) was 0.0004. The “increase in dead-cell fraction” value (THZ531 [10]; 0.003162 µM) was -0.0016, the “increase in dead-cell fraction” value (THZ531 [10]; 0.01 µM) was -0.0015 and the “increase in dead-cell fraction” value (THZ531 [10]; 0.03162 µM) was 0.0016. For the same cell line, the “increase in dead-cell fraction” value (THZ531 [10]; 0.1 µM) was 0.0014, the “increase in dead-cell fraction” value (THZ531 [10]; 0.3162 µM) was 0.0179 and the “increase in dead-cell fraction” value (THZ531 [10]; 1 µM) was 0.586.
